Measured values as given in US20230364118A1, “RIBITOL TREATMENT” (priority 2020, published 2023).
Read-outs that look alike come from different tables or passages of the source.

Tests used:
[1] = In vitro permeability study; format: in vitro ADME; conditions: human, Caco-2, 300 μg/mL
Procedure: (§1) The absorption of ribitol was evaluated in Caco-2 cells at a concentration of 300 μg/mL. The apparent permeability values for apical (A)-to-basal (B) and B-to-A transport were <0.4 and […], respectively.

Caco-2 cells = experiment: In vitro permeability study; format: in vitro ADME
Procedure: as §1

Single oral dose PK [2] = format: in vivo, CD-1 mouse
Procedure: The PK of ribitol was studied in male and female CD-1 mice following two oral doses at 0.3 and 1.0 g/kg (FIG. 10). Blood samples were collected serially up to 24 hours post dose.

Single oral dose PK [3] = format: in vivo; conditions: Bama, minipig, plasma
Procedure: The PK of ribitol was studied in 3 male and 3 female Bama minipigs following escalating PO dose levels using the same animals with a 48 hour washout period at 0.3 g/kg (Day 1) (FIG. 11A), 1.0 g/kg (Day 3) (FIG. 11B) and 0.3 g/kg TID (Day 16) (FIG. 11C). On Days 1 and 3, blood samples were collected at 0, 0.5, 1, 2, 4, 8, 12, and 24 hours post dose from all animals. On Day 16, blood samples were collected from all animals at 0, 0.5, 1, 2, 4, 6 (pre-second dose), 6.5, 7, 8, 10, 12 (pre-third dose), 12.5, 13, 14, 16, and 24 hours post dose.

L276I FKRP mutant mice = experiment: Efficacy in L276I FKRP mutant mouse model; format: in vivo
Procedure: The more common LGMD2i FKRP L276I mutation was studied in a murine model of disease. […] Total running time was increased in these dosing groups (FIG. 7C).
The effect of ribitol on an additional model of LGMD2i was evaluated in mice with the L276I FKRP mutation. L276I mutant mice were treated with ribitol at single daily doses of 0.5 g/kg, 2 g/kg, 5 g/kg, and 5 g/kg BID by oral gavage from the age of 8 weeks when the mild dystrophic phenotype is detectable. The duration of treatment was one year. Ribitol was dissolved in saline and administered by oral gavage. The same methods described above were applied to evaluate expression of matriglycan and muscle pathology.

matriglycan expression = experiment: Matriglycan expression in wild type mice; format: in vivo, mouse; conditions: one month, 5% ribitol in drinking water; vs vehicle
Procedure: Wild type mice were dosed with ribitol to assess matriglycan expression in normal mice. The mice were treated for one month with 5% ribitol in drinking water ad libitum. Muscle samples were evaluated for matriglycan expression at the end of dosing via Western Blot analysis (FIG. 9).

in vivo = experiment: in vivo
Procedure: The purpose of this study was to determine the MTD following a single oral dose (Phase 1) and to characterize the toxicity and toxicokinetic profile following 7 days BID dosing with ribitol (Phase 2).
In Phase 1, Swiss Crl: CD1® mice (5/sex/group) were given ribitol at 0.3, 1.0, 1.5, or 2.0 g/kg/dose BID (0.6, 2.0, 3.0, or 4.0 g/kg/day) with 5 to 7 hours between doses. […] Mice were assessed for viability, clinical signs, body weight, food consumption, and macroscopic findings at necropsy.
Doses were selected for Phase 2 based on the Phase 1 study results and the intended highest clinical dose of 12.0 g/day. In Phase 2, mice (5/sex/group) were given oral doses of 0 (vehicle control, purified water), 0.5, 1.0, or 1.5 g/kg/dose ribitol BID (1.0, 2.0, 3.0 g/kg/day) with 6 hours between doses. Mice were assessed for viability, clinical signs, body weight, food consumption, clinical pathology (hematology and serum chemistry), organ weights (adrenal glands, brain, heart, kidneys, liver with gall bladder, ovaries, spleen, testes, and thymus), and macroscopic pathology at necropsy. Blood was taken from a satellite group of animals (3/sex/timepoint) for plasma TK analysis on Days 1 and 7.

In vitro Ames assay = format: cell-based
hERG potassium channels = hERG potassium channels (Homo sapiens, UniProt Q12809); experiment: cell-based
hERG potassium channels, sequence (Q12809 whole entry): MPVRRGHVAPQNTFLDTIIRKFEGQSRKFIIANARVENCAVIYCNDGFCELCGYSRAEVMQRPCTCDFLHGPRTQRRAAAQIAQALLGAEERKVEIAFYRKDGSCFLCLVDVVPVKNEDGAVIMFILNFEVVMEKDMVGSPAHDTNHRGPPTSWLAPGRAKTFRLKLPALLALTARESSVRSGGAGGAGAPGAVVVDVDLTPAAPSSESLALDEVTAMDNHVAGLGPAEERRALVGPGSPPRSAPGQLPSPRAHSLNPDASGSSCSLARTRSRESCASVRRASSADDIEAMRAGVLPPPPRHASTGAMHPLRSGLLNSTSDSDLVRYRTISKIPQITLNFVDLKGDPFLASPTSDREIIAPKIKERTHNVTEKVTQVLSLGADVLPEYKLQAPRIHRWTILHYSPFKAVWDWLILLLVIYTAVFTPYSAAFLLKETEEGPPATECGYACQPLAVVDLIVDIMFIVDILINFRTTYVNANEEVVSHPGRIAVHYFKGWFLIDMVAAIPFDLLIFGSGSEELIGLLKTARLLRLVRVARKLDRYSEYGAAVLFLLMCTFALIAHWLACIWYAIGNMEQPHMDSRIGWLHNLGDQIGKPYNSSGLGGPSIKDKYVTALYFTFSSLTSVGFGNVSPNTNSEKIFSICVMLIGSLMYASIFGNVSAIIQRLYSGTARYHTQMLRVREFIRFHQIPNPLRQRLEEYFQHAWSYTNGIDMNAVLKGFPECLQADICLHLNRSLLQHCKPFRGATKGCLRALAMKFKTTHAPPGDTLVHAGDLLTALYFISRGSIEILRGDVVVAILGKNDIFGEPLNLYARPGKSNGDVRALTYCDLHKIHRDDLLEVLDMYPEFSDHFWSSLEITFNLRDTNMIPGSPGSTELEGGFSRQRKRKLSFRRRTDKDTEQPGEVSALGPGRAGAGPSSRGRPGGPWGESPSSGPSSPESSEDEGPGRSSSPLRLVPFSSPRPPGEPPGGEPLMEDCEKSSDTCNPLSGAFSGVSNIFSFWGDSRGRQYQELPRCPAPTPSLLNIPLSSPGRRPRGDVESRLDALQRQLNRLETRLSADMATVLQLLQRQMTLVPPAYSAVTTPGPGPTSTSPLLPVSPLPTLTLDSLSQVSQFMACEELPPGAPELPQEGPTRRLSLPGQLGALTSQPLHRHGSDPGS
Procedure: Therefore, the concentrations chosen for the definitive hERG assay were 0.1, 0.3, 1, and 3 mM, the detected concentrations of postperfusion solution were 0.101, 0.293, 0.999, and 2.90 mM, respectively.

[4] = CD-1, mouse, plasma, single PO 0.3 g/kg, female
[5] = CD-1, mouse, plasma, single PO 0.3 g/kg, male
[6] = CD-1, mouse, plasma, single PO 1.0 g/kg, female
[7] = CD-1, mouse, plasma, single PO 1.0 g/kg, male

For `OC[C@@H](O)[C@@H](O)[C@@H](O)CO` [ribitol, (2R,3s,4S)-Pentane-1,2,3,4,5-pentol], the Papp A→B at 300 μg/mL ([1]; read-out: apparent permeability A-to-B) was less than 0.4 ×10⁻⁶ cm/s, the Papp B→A at 300 μg/mL ([1]; read-out: apparent permeability B-to-A) was less than 0.1 ×10⁻⁶ cm/s and the P-gp substrate (Caco-2 cells) was “not a P-glycoprotein (P-gp) substrate”. The permeability class (Caco-2 cells) was “low permeability”, the Tmax (Single oral dose PK [2]; CD-1, mouse, plasma, oral, mice, stated for FOB timepoint selection, read-out: Tmax) was roughly 60 min and the AUC(0-inf) (Single oral dose PK [2]; [4]) was 55.9 µg·h/mL. The Cmax (Single oral dose PK [2]; [4]) was 55 µg/mL, the bioavailability (Single oral dose PK [2]; CD-1, mouse, plasma, single PO 0.3 g/kg, female, read-out: % F) was 30.9% and the half-life (Single oral dose PK [2]; CD-1, mouse, plasma, single PO 0.3 g/kg, female, read-out: T1/2 (converted)) was 78.6 min. The Tmax (Single oral dose PK [2]; CD-1, mouse, plasma, single PO 0.3 g/kg, female, read-out: Tmax) was 30 min, the AUC(0-inf) (Single oral dose PK [2]; [5]) was 41.6 µg·h/mL and the Cmax (Single oral dose PK [2]; [5]) was 45.6 µg/mL. It also gave a bioavailability (Single oral dose PK [2]; CD-1, mouse, plasma, single PO 0.3 g/kg, male, read-out: % F) of 24.6%, a half-life (Single oral dose PK [2]; CD-1, mouse, plasma, single PO 0.3 g/kg, male, read-out: T1/2 (converted)) of 40.6 min and a Tmax (Single oral dose PK [2]; CD-1, mouse, plasma, single PO 0.3 g/kg, male, read-out: Tmax) of 30 min. It also gave an AUC(0-inf) (Single oral dose PK [2]; [6]) of 129 µg·h/mL, a Cmax (Single oral dose PK [2]; [6]) of 124 µg/mL and a bioavailability (Single oral dose PK [2]; CD-1, mouse, plasma, single PO 1.0 g/kg, female, read-out: % F) of 22.1%. For the same compound, the half-life (Single oral dose PK [2]; CD-1, mouse, plasma, single PO 1.0 g/kg, female, read-out: T1/2 (converted)) was 70.2 min, the Tmax (Single oral dose PK [2]; CD-1, mouse, plasma, single PO 1.0 g/kg, female, read-out: Tmax) was 30 min and the AUC(0-inf) (Single oral dose PK [2]; [7]) was 173 µg·h/mL. For the same compound, the Cmax (Single oral dose PK [2]; [7]) was 112 µg/mL, the bioavailability (Single oral dose PK [2]; CD-1, mouse, plasma, single PO 1.0 g/kg, male, read-out: % F) was 30.5% and the half-life (Single oral dose PK [2]; CD-1, mouse, plasma, single PO 1.0 g/kg, male, read-out: T1/2 (converted)) was 78.6 min. The Tmax (Single oral dose PK [2]; CD-1, mouse, plasma, single PO 1.0 g/kg, male, read-out: Tmax) was 30 min, the Tmax (Single oral dose PK [2]; both sexes, CD-1, mouse, plasma, po, read-out: Tmax after oral administration) was less than 120 min and the bioavailability (Single oral dose PK [2]; both sexes, CD-1, plasma, po, mouse, range over doses and sexes, read-out: oral bioavailability) was 22.1 to 30.9%. For the same compound, the half-life (Single oral dose PK [2]; both sexes, CD-1, plasma, po, mouse, range, read-out: T1/2 following the oral dose) was 40.6 to 78.6 min, the AUC(0-inf) (Single oral dose PK [3]; single PO 0.3 g/kg, female) was 245 µg·h/mL and the Cmax (Single oral dose PK [3]; single PO 0.3 g/kg, female) was 128 µg/mL. It also gave a half-life (Single oral dose PK [3]; single PO 0.3 g/kg, female) of 73.8 min, a bioavailability (Single oral dose PK [3]; single PO 0.3 g/kg, female, read-out: % F) of 65.3% and a Tmax (Single oral dose PK [3]; single PO 0.3 g/kg, female, read-out: Tmax) of 40.2 min. For the same compound, the AUC(0-inf) (Single oral dose PK [3]; single PO 0.3 g/kg, male) was 210 µg·h/mL, the Cmax (Single oral dose PK [3]; single PO 0.3 g/kg, male) was 112 µg/mL and the half-life (Single oral dose PK [3]; single PO 0.3 g/kg, male) was 96 min. The bioavailability (Single oral dose PK [3]; single PO 0.3 g/kg, male, read-out: % F) was 55.9%, the Tmax (Single oral dose PK [3]; single PO 0.3 g/kg, male, read-out: Tmax) was 30 min and the AUC(0-inf) (Single oral dose PK [3]; single PO 1.0 g/kg, female) was 878 µg·h/mL. For the same compound, the Cmax (Single oral dose PK [3]; single PO 1.0 g/kg, female) was 368 µg/mL, the half-life (Single oral dose PK [3]; single PO 1.0 g/kg, female) was 85.8 min and the bioavailability (Single oral dose PK [3]; single PO 1.0 g/kg, female, read-out: % F) was 70.2%. It also gave a Tmax (Single oral dose PK [3]; single PO 1.0 g/kg, female, read-out: Tmax) of 40.2 min, an AUC(0-inf) (Single oral dose PK [3]; single PO 1.0 g/kg, male) of 869 µg·h/mL and a Cmax (Single oral dose PK [3]; single PO 1.0 g/kg, male) of 404 µg/mL. It also gave a half-life (Single oral dose PK [3]; single PO 1.0 g/kg, male) of 88.2 min, a bioavailability (Single oral dose PK [3]; single PO 1.0 g/kg, male, read-out: % F) of 69.4% and a Tmax (Single oral dose PK [3]; single PO 1.0 g/kg, male, read-out: Tmax) of 30 min. The Tmax (Single oral dose PK [3]; both sexes, po, read-out: Tmax after oral administration) was less than 120 min, the bioavailability (Single oral dose PK [3]; both sexes, po, range over doses and sexes, read-out: oral bioavailability) was 55.9 to 70.2% and the creatine kinase (L276I FKRP mutant mice; 1 year oral dosing) was “reduced with increasing doses”. For the same compound, the “expression of matriglycan on αDG (immunohistochemistry)” value (L276I FKRP mutant mice; 1 year oral dosing) was “increases in a dose dependent manner”, the “increase in treadmill running distance” value (L276I FKRP mutant mice; 2 g/kg/day) was 14% and the “matriglycan expression (immunohistochemistry)” value (L276I FKRP mutant mice; all treatment groups) was “increased matriglycan expression”. For the same compound, the treadmill running distance (L276I FKRP mutant mice; six months, 2, 5 g/kg, 5 g/kg/dose BID, 3.3 g/kg/dose TID) was “trend toward improved running distance”, the total running time (L276I FKRP mutant mice; six months, same dosing groups) was “increased” and the “matriglycan expression (Western Blot)” value (matriglycan expression) was “No increase in matriglycan expression”. For the same compound, the “mortality, clinical signs, body weight, food consumption, macroscopic findings” value (in vivo; Phase 1, up to 2.0 g/kg/dose BID (4.0 g/kg/day), 14-day observation) was “no treatment-related mortality”, the NOAEL at 7 days (in vivo; both, CD-1, mouse, in vivo, po) was 3000 mg/kg/day and the NOAEL (in vivo; mouse, in vivo, po) was 1.5 g/kg/dose BID. For the same compound, the genotoxicity (In vitro Ames assay) was “devoid of genotoxicity potential” and the IC50 (hERG potassium channels) was greater than 2900 µM.
